One test concerns the target human FAP (Homo sapiens (Human), UniProt Q12884). The experiment in a line: Inhibition assay of FAP (fluorogenic substrate Z-Gly-Pro-AMC). The test is classed as biochemical. Particulars: for pIC50: substrate Z-Gly-Pro-AMC 20 μM, FAP concentration lower than expected IC50 (66 pM in FIG. 3, 4), room temperature, read-out: IC50 vs human FAP; for FAP binding relative to the parent compound (in words): effect of arginine-based tail / of removing furan as group W. As to the method:
(§1) Inhibition assay of FAP. The compounds were precisely weighed (range between […]) on a micro-scale (HuberLab, Sartorius QUINTIX35-1S) and dissolved in DMSO to prepare stock solutions at 1 mM. Stock solutions were further diluted with FAP activation buffer (50 mM Tris, 100 mM NaCl, 1 mM EDTA, pH=7.4) to a final DMSO concentration of 10% v/v. 10 μL of each inhibitor were serially diluted in a 384 well plate (grenier-bio one, PS, F-bottom, Black, non-binding) with 10 μL of 10% DMSO FAP buffer (1:1 dilution). FAP (human and murine) was diluted to the desired concentration with FAP activation buffer and added to the serial dilution of inhibitor (10 μL for each well). Each protein-inhibitor solution was incubated for 30 minutes at room temperature. Each measurement was performed with an enzyme concentration (FAP) lower than the expected IC50. A 60 μM solution of substrate (Z-Gly-Pro-AMC) in FAP activation buffer (<1% DMSO) was added to the plate (10 μL for each well). The reaction was incubated from 1 minute to 48 hours (see FIG. 2) at room temperature (22° C.-25° C.). The emission was read at 465 nm (excitation wavelength 360 nm) for 40 μs by Tecan Spark (s.n. 1808004082). The following controls were added to each row: positive control (no inhibitor control, 10 μL of 10% DMSO FAP buffer+10 μL of FAP solution+10 μL of substrate solution), negative control (no protein control, 10 μL of 10% DMSO FAP buffer+10 μL of FAP activation buffer+10 μL of substrate solution).
(§2) Normalization of values: The “% of FAP activity” can be calculated with the following formula:
The concentration of substrate (Z-Gly-Pro-AMC) was kept constant=20 μM. Dashed lines corresponds to sets of data with unstable fitting. […] Error bars display SEM.
(§3) FIG. 3: Inhibition assay performed with compounds 1, 2, 3, 4, 5, 6, 8 against a) 66 pM human FAP and b) 66 pM murine FAP. The concentration of substrate (Z-Gly-Pro-AMC) was kept constant=20 μM. The assay was incubated for 48 hours at 22.6° C. Error bars display SEM.
(§4) FIG. 4: a) Inhibition assay performed with compounds 8, 9 and 10 against 66 pM human FAP. The assay was incubated for 17 hours at 25° C. b) Inhibition assay performed with compound 9 against 66 pM murine FAP. The assay was incubated for 17 hours at 25° C. In both assays the concentration of substrate (Z-Gly-Pro-AMC) was kept constant=20 μM. Error bars display SEM.
FIG. 19. A: Chemical structures and corresponding IC50(hFAP) values of compounds according to the present invention. B: Chemical structures and corresponding IC50 values of compounds where the propargyl moiety at position AA^2 was replaced by different groups (Me, iPr, Bn) using both R and S stereoisomers. The sites of modification have been highlighted with arrows. Each measurement was performed with a FAP concentration lower than the expected IC50. Depending on FAP concentration, the fluorescence was measured between 10 minutes and 48 h (at room temperature) after the addition of the fluorogenic substrate (Z-Gly-Pro-AMC). IC50 values and standard errors were calculated using “[Inhibitor] vs. response—Variable slope (four parameters)” fitting (Graphpad Prism). […] By introducing the quinoline-based moiety, a single-digit nanomolar inhibitor was obtained. […] The replacement of propargylglycine with S-phenylalanine improved potency of the lead compound of additional ˜2-folds (compound 14).

The target of the next test is murine FAP (Mus musculus (Mouse), UniProt P97321). Described as above. Type of test: biochemical. As to conditions: substrate Z-Gly-Pro-AMC 20 μM; 66 pM murine FAP; room temperature. How it is done: as §1, §2, §3, §4

pIC50: −log10 of the molar value.

The values that follow come from patent US20250177582A1, “HIGH-AFFINITY LIGANDS OF FIBROBLAST ACTIVATION PROTEIN FOR TARGETED DELIVERY APPLICATIONS” (PHILOCHEM AG, priority 2022, published 2025).

Chain of murine FAP (P97321 whole entry): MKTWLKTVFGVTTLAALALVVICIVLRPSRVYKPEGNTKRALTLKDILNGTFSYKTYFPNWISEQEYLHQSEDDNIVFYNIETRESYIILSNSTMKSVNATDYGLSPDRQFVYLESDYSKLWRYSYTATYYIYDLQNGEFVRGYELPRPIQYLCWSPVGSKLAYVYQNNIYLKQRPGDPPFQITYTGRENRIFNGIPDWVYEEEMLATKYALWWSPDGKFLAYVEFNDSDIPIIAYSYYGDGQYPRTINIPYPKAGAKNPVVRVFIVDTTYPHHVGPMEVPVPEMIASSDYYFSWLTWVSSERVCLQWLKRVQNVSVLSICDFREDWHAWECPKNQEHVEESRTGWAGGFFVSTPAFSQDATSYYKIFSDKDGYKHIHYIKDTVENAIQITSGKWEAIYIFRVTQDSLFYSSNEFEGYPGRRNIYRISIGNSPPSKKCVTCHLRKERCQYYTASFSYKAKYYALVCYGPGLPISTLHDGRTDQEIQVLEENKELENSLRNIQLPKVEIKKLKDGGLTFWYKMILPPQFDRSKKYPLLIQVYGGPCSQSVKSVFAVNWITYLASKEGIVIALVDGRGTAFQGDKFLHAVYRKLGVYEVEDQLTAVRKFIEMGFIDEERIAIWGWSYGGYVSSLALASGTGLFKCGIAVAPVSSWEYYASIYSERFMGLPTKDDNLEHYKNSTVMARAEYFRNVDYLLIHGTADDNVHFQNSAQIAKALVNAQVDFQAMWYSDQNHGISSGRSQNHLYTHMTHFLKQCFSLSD
Chain of human FAP (Q12884 whole entry): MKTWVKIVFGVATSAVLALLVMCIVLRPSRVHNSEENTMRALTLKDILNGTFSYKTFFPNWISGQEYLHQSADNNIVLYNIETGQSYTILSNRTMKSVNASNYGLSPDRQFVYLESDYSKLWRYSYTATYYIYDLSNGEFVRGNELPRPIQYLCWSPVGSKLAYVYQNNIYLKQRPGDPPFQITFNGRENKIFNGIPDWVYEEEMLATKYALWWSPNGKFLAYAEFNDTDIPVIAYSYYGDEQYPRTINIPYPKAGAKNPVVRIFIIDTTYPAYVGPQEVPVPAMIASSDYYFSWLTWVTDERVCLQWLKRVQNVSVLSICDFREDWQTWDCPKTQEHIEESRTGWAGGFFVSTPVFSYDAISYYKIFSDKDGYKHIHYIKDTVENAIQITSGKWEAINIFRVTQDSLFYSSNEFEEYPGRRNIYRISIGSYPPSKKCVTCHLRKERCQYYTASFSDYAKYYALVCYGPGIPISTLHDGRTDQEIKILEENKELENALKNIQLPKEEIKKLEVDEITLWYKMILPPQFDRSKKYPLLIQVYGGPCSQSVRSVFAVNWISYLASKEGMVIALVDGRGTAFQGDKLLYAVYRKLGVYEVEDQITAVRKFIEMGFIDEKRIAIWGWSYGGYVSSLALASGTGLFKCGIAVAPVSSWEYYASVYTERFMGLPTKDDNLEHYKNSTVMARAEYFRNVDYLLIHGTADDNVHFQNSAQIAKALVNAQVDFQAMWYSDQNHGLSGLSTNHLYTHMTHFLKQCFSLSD

As a reminder, the pIC50 is the IC50 on a negative log10 scale, so that one unit is a factor of ten. Turning to `N#C[C@@H]1CC(F)(F)CN1C(=O)CCC(=O)O` [Compound 1], the pIC50 at human FAP was 3.60; on murine FAP, 3.70.
Take `C#CC[C@@H](NC(=O)[C@H](CCCNC(=N)N(C)C)NC(=O)c1coc(CNC(=O)CCC(=O)N2CC(F)(F)C[C@H]2C#N)c1)C(=O)N[C@@H](CCCCN)C(=O)O` [Compound 3]: the pIC50 at human FAP is 7.22; against murine FAP it was 7.42.
With `CN(C)C(=N)NCCC[C@H](NC(=O)c1coc(CNC(=O)CCC(=O)N2CC(F)(F)C[C@H]2C#N)c1)C(=O)N[C@@H](CCCCN)C(=O)O` [Compound 4], at human FAP, the “FAP binding relative to the parent compound (in words)” value was “significant improvement” and the pIC50 was 6.75. Moreover, the negative-log IC50 (pIC50) on murine FAP is 6.81.
In the case of `C#CC[C@H](NC(=O)c1coc(CNC(=O)CCC(=O)N2CC(F)(F)C[C@H]2C#N)c1)C(=O)N[C@@H](CCCCN)C(=O)O` [Compound 5], the pIC50 on murine FAP is 5.41.
As for `C#CC[C@H](NC(=O)CCC(=O)N1CC(F)(F)C[C@H]1C#N)C(=O)N[C@@H](CCCCN)C(=O)O` [Compound 6], on human FAP, the “FAP binding relative to the parent compound (in words)” value was “worsening” and the negative logarithm of the IC50 (pIC50) is 4.76. The pIC50 on murine FAP was 4.64.
As to `C#CC[C@H](NC(=O)CCC(=O)Nc1cccc2c(C(=O)NCC(=O)N3CC(F)(F)C[C@H]3C#N)ccnc12)C(=O)N[C@@H](CCCCN)C(=O)O` [Compound 10], at human FAP, the pIC50 is 8.36.
As to `CN(C)C(=N)NCCC[C@H](NC(=O)CCC(=O)Nc1cccc2c(C(=O)NCC(=O)N3CC(F)(F)C[C@H]3C#N)ccnc12)C(=O)N[C@@H](Cc1ccccc1)C(=O)N[C@@H](CCCCN)C(=O)O` [Compound 11], the “FAP inhibition potency (in words)” value on human FAP (SAR comparison) was “picomolar range”. On human FAP, the pIC50 was 9.81.
In the case of `N#C[C@@H]1CC(F)(F)CN1C(=O)CNC(=O)c1ccnc2c(NC(=O)CCC(=O)N[C@@H](CCCNC(=N)N)C(=O)N[C@@H](Cc3ccccc3)C(=O)N[C@@H](CCCCN)C(=O)O)cccc12` [Compound 14], the “improvement of potency over the lead compound on replacing propargylglycine with S-phenylalanine” value on human FAP (L-arginine building block (R=H)) is listed as ~2 folds. In addition, the pIC50 at human FAP is 9.45.
As to `N#C[C@@H]1CC(F)(F)CN1C(=O)CNC(=O)c1ccnc2c(NC(=O)CCC(=O)N[C@@H](CCCNC(=N)N)C(=O)N[C@H](Cc3ccccc3)C(=O)N[C@@H](CCCCN)C(=O)O)cccc12` [Compound 15], the pIC50 at human FAP was 6.22.
For `CC(C)[C@H](NC(=O)[C@H](CCCNC(=N)N)NC(=O)CCC(=O)Nc1cccc2c(C(=O)NCC(=O)N3CC(F)(F)C[C@H]3C#N)ccnc12)C(=O)N[C@@H](CCCCN)C(=O)O` [Compound 16], at human FAP, the pIC50 is 8.78.
In the case of `CC(C)[C@@H](NC(=O)[C@H](CCCNC(=N)N)NC(=O)CCC(=O)Nc1cccc2c(C(=O)NCC(=O)N3CC(F)(F)C[C@H]3C#N)ccnc12)C(=O)N[C@@H](CCCCN)C(=O)O` [Compound 17], the pIC50 at human FAP was 9.16.
In the case of `C[C@H](NC(=O)[C@H](CCCNC(=N)N)NC(=O)CCC(=O)Nc1cccc2c(C(=O)NCC(=O)N3CC(F)(F)C[C@H]3C#N)ccnc12)C(=O)N[C@@H](CCCCN)C(=O)O` [Compound 18], the pIC50 on human FAP was 8.81.
The same measure, in the same setting: in the case of `C[C@@H](NC(=O)[C@H](CCCNC(=N)N)NC(=O)CCC(=O)Nc1cccc2c(C(=O)NCC(=O)N3CC(F)(F)C[C@H]3C#N)ccnc12)C(=O)N[C@@H](CCCCN)C(=O)O` [Compound 19] it was 9.00.
For `CN(C)C(=N)NCCC[C@H](NC(=O)CCC(=O)Nc1cccc2c(C(=O)NCC(=O)N3CC(F)(F)C[C@H]3C#N)ccnc12)C(=O)N[C@@H](Cc1ccccc1)C(=O)NCCNC(=O)OC(C)(C)C` [Compound 26], the negative logarithm of the IC50 (pIC50) on human FAP was 10.13.
Regarding `CN(C)C(=N)NCCC[C@H](NC(=O)CCC(=O)Nc1cccc2c(C(=O)NCC(=O)N3CC(F)(F)C[C@H]3C#N)ccnc12)C(=O)N[C@@H](Cc1ccccc1)C(=O)NCCN` [Compound 27], the negative-log IC50 (pIC50) at human FAP was 8.99.
Same read-out and setting: next, `N#C[C@@H]1CC(F)(F)CN1C(=O)CN` [reference compound]: 4.62.
